Results reported in US9283234B2, “Compositions and methods for suppressing endometrial proliferation” (REPROS THERAPEUTICS INC., priority 2006, dated 2016).

How the values were obtained:
[1] = target: T1, glucocorticoid receptor (rbGR) (Oryctolagus cuniculus, UniProt P59667); experiment: glucocorticoid receptor binding; parameters: species or system rabbit
T1 construct: cytosol containing PR or GR were prepared in TEGMD buffer; from tissue; host or cells: thymus of estradiol-primed immature rabbits (cytosol)
T1 sequence (P59667 1-772): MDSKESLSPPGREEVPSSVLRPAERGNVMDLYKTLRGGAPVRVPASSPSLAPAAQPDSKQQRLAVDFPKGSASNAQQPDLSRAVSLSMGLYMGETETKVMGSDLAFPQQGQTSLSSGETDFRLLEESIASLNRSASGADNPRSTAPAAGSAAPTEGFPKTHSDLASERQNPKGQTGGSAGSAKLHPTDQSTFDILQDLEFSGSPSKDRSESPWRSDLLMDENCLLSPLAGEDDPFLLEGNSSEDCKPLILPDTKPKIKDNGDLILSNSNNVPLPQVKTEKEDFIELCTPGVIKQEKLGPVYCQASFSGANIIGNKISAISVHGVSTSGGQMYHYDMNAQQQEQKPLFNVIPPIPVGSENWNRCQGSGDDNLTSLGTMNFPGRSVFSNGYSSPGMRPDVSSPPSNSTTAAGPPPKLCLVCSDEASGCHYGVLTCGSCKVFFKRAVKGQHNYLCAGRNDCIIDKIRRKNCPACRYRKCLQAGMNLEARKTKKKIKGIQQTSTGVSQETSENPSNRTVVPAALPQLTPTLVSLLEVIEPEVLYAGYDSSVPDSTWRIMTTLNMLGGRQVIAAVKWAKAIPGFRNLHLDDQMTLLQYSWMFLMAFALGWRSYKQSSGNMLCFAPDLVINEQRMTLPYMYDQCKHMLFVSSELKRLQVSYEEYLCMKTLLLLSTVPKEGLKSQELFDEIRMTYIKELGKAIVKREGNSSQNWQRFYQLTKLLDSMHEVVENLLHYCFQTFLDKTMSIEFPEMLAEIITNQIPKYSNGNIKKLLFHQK
Method: Certain antiprogestins were tested in receptor-binding assays for their ability to bind rabbit progesterone receptor (rbPR) and glucocorticoid receptor (rbGR). […] For PR binding, the cytosol was incubated with 6 nM 1,2-[^3H]progesterone (50.0 Ci/mmole) and competitors were added at concentrations from 2 to 100 nM. For binding to GR, the cytosol was incubated with 6 nM 6,7-[^3H]-dexamethasone (40 Ci/mmol) and test compounds were added at concentrations from 20 to 100 nM. After overnight incubation at 4 C, bound and unbound [^3H] steroids were separated by addition of dextran-coated charcoal and centrifugation at 2100×g for 15 min at 4 C. Supernatants containing the [^3H]-steroid receptor complexes were decanted into vials containing 4 ml OPTIFLUOR scintillation fluid (Packard Instrument Co.), vortexed, equilibrated in a liquid scintillation counter for 30 minutes and then counted for 2 minutes. […] The standards for the PR and GR assays were unlabeled progesterone and dexamethasone, respectively.

[2] = estrogenic, androgenic, anti-estrogenic and anti-androgenic activities
Source text: These methods include receptor binding and in vivo bioassays such as anti-McGinty, anti-Clauberg, glucocorticoid, estrogenic, androgenic, anti-glucocorticoid (AG), anti-estrogen, and anti-androgen activities as well as post-coital and anti-ovulatory activities where in the leading compounds of the instant invention are used as a reference.

[3] = Measuring serum cortisol in rats; assay type: in vivo; conditions: 10 mg/kg, 21 days of chronic dosing, FIG. 1
[4] = test system: rabbit progesterone receptor (rbPR) and glucocorticoid receptor (rbGR); experiment: Receptor-binding assays, ratio of relative binding affinities rbPR/rbGR; conditions: ratio of relative binding affinities (RBA = EC50 of standard/EC50 of test compound x100) for rbPR and rbGR; standards progesterone, dexamethasone
Method: Certain antiprogestins were tested in receptor-binding assays for their ability to bind rabbit progesterone receptor (rbPR) and glucocorticoid receptor (rbGR). Briefly, cytosol containing PR or GR were prepared in TEGMD buffer (10 mM Tris, pH 7.2, 1.5 mM EDTA, 0.2 mM sodium molybdate, 10% glycerol, 1 mM DTT) from uterus or thymus, respectively, of estradiol-primed immature rabbits. For PR binding, the cytosol was incubated with 6 nM 1,2-[^3H]progesterone (50.0 Ci/mmole) and competitors were added at concentrations from 2 to 100 nM. For binding to GR, the cytosol was incubated with 6 nM 6,7-[^3H]-dexamethasone (40 Ci/mmol) and test compounds were added at concentrations from 20 to 100 nM. After overnight incubation at 4 C, bound and unbound [^3H] steroids were separated by addition of dextran-coated charcoal and centrifugation at 2100×g for 15 min at 4 C. Supernatants containing the [^3H]-steroid receptor complexes were decanted into vials containing 4 ml OPTIFLUOR scintillation fluid (Packard Instrument Co.), vortexed, equilibrated in a liquid scintillation counter for 30 minutes and then counted for 2 minutes. The EC50 (Effective Concentration) for each standard curve and each of the compound curves was determined by entering the counting data into a four parameter sigmoidal computer program ([…] Immunoassay Data Reduction Program, Packard Instrument Co., Meriden, Conn.). Relative binding affinity (RBA) for each compound was calculated using the following equation: EC50 of standard/EC50 of test compound×100. The standards for the PR and GR assays were unlabeled progesterone and dexamethasone, respectively. The results of these experiments are summarized in Table 1, as a ratio of the relative binding affinities of each compound for the rbPR and rbGR receptors (rbPR/rbGR).

rabbit uterus = experiment: anti-McGinty and anti-Clauberg assays; assay type: in vivo; conditions: average of anti-McGinty and anti-Clauberg results relative to CDB-2914 (=1.00)
Source text: Also given in Table 1 are the relative biological activities of the same compounds in the rabbit uterus by the anti-McGinty and anti-Clauberg assays. Compound CDB-2914 (listed at the end of the Table) was used as the control or reference compound (rabbit Biological Activity=1.00) for these experiments because results of experiments using CDB-2914 have been published before (Hild-Petito et al., 1996; Passaro et al., 1997; Reel et al., 1998; Larner et al., 2000). For the anti-McGinty test, immature female rabbits received a subcutaneous injection of 5 μg estradiol in 10% ethanol/sesame oil daily for 6 consecutive days. On day 7, animals underwent sterile abdominal surgery to ligate a 3-4 cm segment of both uterine horns. The test compound in appropriate solvent was injected intraluminally into the ligated segment of one uterine horn and vehicle alone into the other. A stimulating dose of progesterone (267 μg/day) was administered subcutaneously to each rabbit daily for the next three days to induce endometrial proliferation. All animals were sacrificed at day 10 for removal of the uterus where a segment central to the ligatures was removed and fixed in 10% neutral buffered formalin and submitted for histological processing. Five micron sections stained with hematoxylin and cosin were evaluated microscopically for the degree of endometrial glandular proliferation. The percent inhibition of endometrial proliferation for each rabbit was calculated and the mean of the group of five animals recorded. For the Anti-Clauberg test, immature female rabbits received a subcutaneous injection of 5 μg estradiol in 10% ethanol/sesame oil daily for 6 consecutive days. On day 7, animals received progesterone by subcutaneous injection (160 μg/day) and the experimental compound in appropriate vehicle orally or subcutaneously for five consecutive days. One group of rabbits received progesterone only. […] Five micron sections stained with hematoxylin and eosin were evaluated microscopically for the degree of endometrial glandular proliferation. […]

[5] = test system: pain associated with endometriosis; experiment: Six month endometriosis study: pain diaries and symptom surveys; assay type: in vivo, pre-menopausal adult women; parameters: key to score for intensity of pain on a bad day: 0-10 scale; 0 = no pain, 10 = extreme pain
Method: Pain reduction also occurred more rapidly than with the active control, LUCRIN. The response of pain to treatment in this study was analyzed in two ways. Patients in the study maintained daily pain diaries to record the severity and frequency of pain. In addition, at each office visit, patients filled out endometriosis symptom surveys that included a questionnaire that evaluated intensity of pain on a bad day on a scale of 0-10 with 10 being the greatest intensity. […] There appeared to be a dose dependent effect on pain reduction. […] This decrease in duration of pain was statistically better (p=0.0012) than the 117.8 (74%; standard deviation 51.4 days) pain free days achieved with LUCRIN. […] Patients on CDB-4124 12.5 mg and 25 mg doses had 115.9 (66%; standard deviation 69.2 days) and 133.6 (75%; standard deviation 27.4 days) pain free days, respectively. […] The 25 mg and 12.5 mg doses of CDB-4124 were not statistically different from LUCRIN. […] The intensity of pain was asked by the question: “On a scale of 1-10, with 0 being no pain and 10 being extreme pain, how intense was your pain on a bad day?” The mean scores for intensity of pain at baseline were 6.3 for the CDB-4124 groups and 6.1 for the LUCRIN group. […] At month three all four active treatment groups had statistically significant reduction in pain compared with baseline, with the following scores: 3.7 (p=0.03) for 12.5 mg CDB-4124, 3.2 (p=0.03) for 25 mg CDB-4124, 1.6 (p=0.015) for 50 mg CDB-4124 and 1.5 (p=0.016) for LUCRIN. These dose related reductions continued until month six when the values for pain intensity were 2.0 (p=0.008), 2.8 (p=0.023), 0.6 (p=0.004) and 0.7 (p=0.016), respectively. Two months after stopping treatment pain returned and was of similar intensity in all four treatment groups.

endometrium = experiment: Six month endometriosis study: endometrial thickness (ultrasound) / endometrial proliferation; assay type: in vivo, pre-menopausal adult women; conditions: LUPRON once per month
Source text: Comparisons were made to both baseline and visit one ultrasound measurements of endometrial thickness. […]

[6] = Measuring serum corticosterone in rats; conditions: progesterone, CDB-4124 and RU-486 groups compared

**Q.** Which “anti-glucocorticoid receptor activity / glucocorticoid receptor binding” value [1] does the source give for `CC(=O)O[C@]1(C(C)=O)CC[C@H]2[C@@H]3CCC4=CC(=O)CCC4=C3[C@@H](c3ccc(N(C)C)cc3)C[C@@]21C` [CDB-2914, 17α-acetoxy-11β-(4-N,N-dimethylaminophenyl)-19-norpregna-4,9-dien-3,20-dione] here?
**A.** The value was “moderately active in glucocorticoid receptor binding”.

**Q.** With `CC(=O)OCC(=O)[C@@]1(OC(C)=O)CCC2C3CCC4=CC(=O)CCC4=C3C(c3ccc(N(C)C)cc3)C[C@@]21C` (stereo partly drawn) [CDB-4059, 21-acetoxy-17α-acetoxy-1,3-(4 N,N-dimethylaminophenyl)-19-norpregna-4,9-diene-3,20-dione] as the compound, how does the “estrogenic, androgenic, anti-estrogenic, and anti-androgenic activities” value [2] read?
**A.** Its value is “lack”.

**Q.** And the “serum cortisol versus control group” value [3]?
**A.** Its value is “significantly higher levels of serum cortisol”.

**Q.** Which results are given for `COCC(=O)[C@@]1(OC(C)=O)CCC2C3CCC4=CC(=NO)CCC4=C3C(c3ccc(N(C)C)cc3)C[C@@]21C` (stereo partly drawn) [CDB-4205, 3-hydroxyamino-2′-methoxy-17α-acetoxy-11β-(4 N,N-dimethylaminophenyl)-19-norpregna-4,9-diene-3,20-dione]?
**A.** rbPR/rbGR [4]: 1.99; rabbit Biol. Act. (rabbit uterus): 1.00

**Q.** With `CC(=O)OCC(=O)[C@@]1(OC(C)=O)CCC2C3CCC4=CC(=NO)CCC4=C3C(c3ccc(N(C)C)cc3)C[C@@]21C` (stereo partly drawn) [CDB-4206, 3-hydroxyamino-2′-acetoxy-17α-acetoxy-11β-(4 N,N-dimethylaminophenyl)-19-norpregna-4,9-diene-3,20-dione] as the compound, how does the rbPR/rbGR [4] read?
**A.** Its rbPR/rbGR is 1.44.

**Q.** And the “rabbit Biol. Act.” value (rabbit uterus)?
**A.** Its value is 0.68.

**Q.** Which rbPR/rbGR [4] does the source give for `CCOCC(=O)[C@@]1(OC(C)=O)CCC2C3CCC4=CC(=NO)CCC4=C3C(c3ccc(N(C)C)cc3)C[C@@]21C` (stereo partly drawn) [CDB-4226, 3-hydroxyamino-21-ethyloxy-17α-acetoxy-11β-(4 N,N-dimethylaminophenyl)-19-norpregna-4,9-diene-3,20-dione] here?
**A.** Its rbPR/rbGR is 1.51.

**Q.** What about the “rabbit Biol. Act.” value (rabbit uterus) of the same compound?
**A.** The value was 0.54.

**Q.** Which “percent pain free days over the 180 day treatment period” value ([5]; LUCRIN once per month) does the source give for `CCNC(=O)[C@@H]1CCCN1C(=O)[C@H](CCCNC(=N)N)NC(=O)[C@H](CC(C)C)NC(=O)[C@@H](CC(C)C)NC(=O)[C@H](Cc1ccc(O)cc1)NC(=O)[C@H](CO)NC(=O)[C@H](Cc1c[nH]c2ccccc12)NC(=O)[C@H](Cc1c[nH]cn1)NC(=O)[C@@H]1CCC(=O)N1` [LUPRON, leuprolide acetate, reference compound] here?
**A.** The value was 74%.

**Q.** What about the “distress related to pain over the six month exposure” value ([5]; all doses, on average) of the same compound?
**A.** The value was “reduced distress related to pain”.

**Q.** And the “mean score for intensity of pain on a bad day” value ([5]; baseline, scale 0-10)?
**A.** The value was 6.1.

**Q.** And the “score for intensity of pain on a bad day” value ([5]; month six, LUCRIN once per month)?
**A.** Its value is 0.7.

**Q.** And the “score for intensity of pain on a bad day” value ([5]; month three, LUCRIN once per month)?
**A.** Its value is 1.5.

**Q.** And the “Endometrium (mm) 1st dose” value (endometrium; 1st dose)?
**A.** The value was 7.5 mm.

**Q.** What about the “Endometrium (mm) 3 months” value (endometrium; 3 months) of the same compound?
**A.** The value was 2.75 mm.

**Q.** And the “Endometrium (mm) screening” value (endometrium; screening)?
**A.** Its value is 7.9 mm.

**Q.** What does the source list for `CC#C[C@]1(O)CC[C@H]2[C@@H]3CCC4=CC(=O)CCC4=C3[C@@H](c3ccc(N(C)C)cc3)C[C@@]21C` [RU 486, 11β-[p-(Dimethylamino)phenyl]-17β-hydroxy-17-(1-propynyl)estra-4,9-dien-3-one, reference compound]?
**A.** anti-glucocorticoid receptor activity / glucocorticoid receptor binding [1]: moderately active in glucocorticoid receptor binding; serum cortisol versus control group [3]: no significant difference in the levels of cortisol; differences in serum corticosterone between treatment groups [6]: No differences in serum corticosterone

**Q.** For `CC(=O)[C@H]1CC[C@H]2[C@@H]3CCC4=CC(=O)CC[C@]4(C)[C@H]3CC[C@]12C` [progesterone, reference compound], which “differences in serum corticosterone between treatment groups” value [6] is on record?
**A.** Its value is “No differences in serum corticosterone”.
